Assay results: US20230126893A1, “[(1,4,5-TRISUBSTITUTED-1H-PYRAZOL-3-YL)SULFANYL]ACETIC ACID DERIVATIVES, SALTS THEREOF, AND USE THEREOF AS ACTIVE HERBICIDAL INGREDIENTS” (BAYER AKTIENGESELLSCHAFT, priority 2020, published 2023)

Key:
Type in all cases: in vivo
Abutylon threophrasti = assay: Post-emergence herbicidal effect against ABUTH; conditions: 1280 g/ha, visual assessment about 3 weeks after treatment, 100% = plants have died, 0% = like control plants
Experimental: (§1) [table] 2. Post-emergence herbicidal effect and crop plant compatibility Seeds of monocotyledonous and dicotyledonous weed and crop plants are laid out in sandy loam soil in wood-fibre pots, covered with soil and cultivated in a greenhouse under good growth conditions. 2 to 3 weeks after sowing, the test plants are treated at the one-leaf stage. The compounds of the invention, formulated in the form of wettable powders (WP) or as emulsion concentrates (EC), are then sprayed onto the green parts of the plants as aqueous suspension or emulsion at a water application rate equating to 600 to 800 l/ha with addition of 0.2% wetting agent. After the test plants have been left to stand in the greenhouse under optimal growth conditions for about 3 weeks, the action of the preparations is assessed visually in comparison to untreated controls (herbicidal action in percent (%): 100% activity=the plants have died, 0% activity=like control plants).

Veronica persica [1] = assay: Post-emergence herbicidal effect against VERPE; conditions: 1280 g/ha, visual assessment about 3 weeks after treatment, 100% = plants have died, 0% = like control plants
Experimental: as §1

Bassia scoparia = assay: Post-emergence herbicidal effect against KCHSC; conditions: 1280 g/ha, visual assessment about 3 weeks after treatment, 100% = plants have died, 0% = like control plants
Experimental: as §1

Poa annua [2] = assay: Pre-emergence herbicidal effect against POAAN; conditions: 1280 g/ha, visual score after 3 weeks, 100% = plants have died, 0% = like control plants
Text: (§2) 1. Pre-emergence herbicidal effect and crop plant compatibility Seeds of monocotyledonous and dicotyledonous weed plants and crop plants are laid out in sandy loam soil in wood-fibre pots and covered with soil. The compounds of the invention, formulated in the form of wettable powders (WP) or as emulsion concentrates (EC), are then applied to the surface of the covering soil as aqueous suspension or emulsion at a water application rate equating to 600 to 800 L/ha with addition of 0.2% wetting agent. After the treatment, the pots are placed in a greenhouse and kept under good growth conditions for the trial plants. The damage to the test plants is scored visually after a test period of 3 weeks by comparison with untreated controls (herbicidal activity in percent (%): 100% activity=the plants have died, 0% activity=like control plants). [table]

[3] = system: Tripleurospermum inodorum; assay: Pre-emergence herbicidal effect against MATIN; conditions: 1280 g/ha, visual score after 3 weeks, 100% = plants have died, 0% = like control plants
Text: as §2

Alopecurus myosuroides [4] = assay: Pre-emergence herbicidal effect against ALOMY; conditions: 1280 g/ha, visual score after 3 weeks, 100% = plants have died, 0% = like control plants
Text: as §2

Veronica persica [5] = assay: Pre-emergence herbicidal effect against VERPE; conditions: 1280 g/ha, visual score after 3 weeks, 100% = plants have died, 0% = like control plants
Text: as §2

Alopecurus myosuroides [6] = assay: Post-emergence herbicidal effect against ALOMY; conditions: 1280 g/ha, visual score after about 3 weeks, 100% = plants have died, 0% = like control plants
Experimental: as §1

Stellaria media [7] = assay: Pre-emergence herbicidal effect against STEME; conditions: 1280 g/ha, visual score after 3 weeks, 100% = plants have died, 0% = like control plants
Text: as §2

Poa annua [8] = assay: Post-emergence herbicidal effect against POAAN; conditions: 1280 g/ha, visual assessment about 3 weeks after treatment, 100% = plants have died, 0% = like control plants
Experimental: as §1

Lolium rigidum = assay: Pre-emergence herbicidal effect against LOLRI; conditions: 1280 g/ha, visual score after 3 weeks, 100% = plants have died, 0% = like control plants
Text: as §2

Digitaria sanguinalis [9] = assay: Pre-emergence herbicidal effect against DIGSA; conditions: 1280 g/ha, visual score after 3 weeks, 100% = plants have died, 0% = like control plants
Text: as §2

Stellaria media [10] = assay: Post-emergence herbicidal effect against STEME; conditions: 1280 g/ha, visual assessment about 3 weeks after treatment, 100% = plants have died, 0% = like control plants
Experimental: as §1

Setaria viridis [11] = assay: Pre-emergence herbicidal effect against SETVI; conditions: 1280 g/ha, visual score after 3 weeks, 100% = plants have died, 0% = like control plants
Text: as §2

Digitaria sanguinalis [12] = assay: Post-emergence herbicidal effect against DIGSA; conditions: 1280 g/ha, visual score after about 3 weeks, 100% = plants have died, 0% = like control plants
Experimental: as §1

[13] = system: Tripleurospermum inodorum; assay: Post-emergence herbicidal effect against MATIN; conditions: 1280 g/ha, visual assessment about 3 weeks after treatment, 100% = plants have died, 0% = like control plants
Experimental: as §1

Echinochloa crus-galli [14] = assay: Pre-emergence herbicidal effect against ECHCG; conditions: 1280 g/ha, visual score after 3 weeks, 100% = plants have died, 0% = like control plants
Text: as §2

Echinochloa crus-galli [15] = assay: Post-emergence herbicidal effect against ECHCG; conditions: 1280 g/ha, visual score after about 3 weeks, 100% = plants have died, 0% = like control plants
Experimental: as §1

Setaria viridis [16] = assay: Post-emergence herbicidal effect against SETVI; conditions: 1280 g/ha, visual assessment about 3 weeks after treatment, 100% = plants have died, 0% = like control plants
Experimental: as §1

| Compound | Post-emergence action against ABUTH (Abutylon threophrasti) [%] | Post-emergence action against VERPE (Veronica persica [1]) [%] | Post-emergence action against KCHSC (Bassia scoparia) [%] | Pre-emergence action against POAAN (Poa annua [2]) [%] | Pre-emergence action against MATIN [3] [%] | Pre-emergence action against ALOMY (Alopecurus myosuroides [4]) [%] | Pre-emergence action against VERPE (Veronica persica [5]) [%] | Post-emergence action against ALOMY (Alopecurus myosuroides [6]) [%] | Pre-emergence action against STEME (Stellaria media [7]) [%] | Post-emergence action against POAAN (Poa annua [8]) [%] | Pre-emergence action against LOLRI (Lolium rigidum) [%] | Pre-emergence action against DIGSA (Digitaria sanguinalis [9]) [%] | Post-emergence action against STEME (Stellaria media [10]) [%] | Pre-emergence action against SETVI (Setaria viridis [11]) [%] | Post-emergence action against DIGSA (Digitaria sanguinalis [12]) [%] | Post-emergence action against MATIN [13] [%] | Pre-emergence action against ECHCG (Echinochloa crus-galli [14]) [%] | Post-emergence action against ECHCG (Echinochloa crus-galli [15]) [%] | Post-emergence action against SETVI (Setaria viridis [16]) [%] |
| --- | --- | --- | --- | --- | --- | --- | --- | --- | --- | --- | --- | --- | --- | --- | --- | --- | --- | --- | --- |
| COC(=O)CN(C)C(=O)CSc1nn(-c2ccccc2F)c(-c2cccnc2)c1Br [VII-008] | 90 | 90 | 90 | 90 |  |  |  |  |  |  |  |  |  |  |  |  |  |  |  |
| COC(=O)CN(C)C(=O)CSc1nn(-c2ccccc2F)c(-c2ccc(F)c(F)c2)c1Br [VII-011] |  | 90 | 90 | 100 | 90 | 90 | 90 | 90 |  |  |  |  |  |  |  |  |  |  |  |
| CCOC(=O)CSc1nn(-c2ccc(Cl)cc2Cl)c(-c2ccc(F)c(F)c2)c1Br [Example I-026] |  | 90 |  |  | 100 |  |  |  |  |  |  |  |  |  |  |  |  |  |  |
| CCOC(=O)CSc1nn(-c2ccc(F)cc2F)c(-c2ccc(F)c(F)c2)c1Br [Example I-027] |  | 100 | 90 | 100 | 100 |  | 90 | 100 | 100 | 90 | 90 | 100 | 90 | 100 | 100 |  |  |  |  |
| O=C(O)CSc1nn(-c2cccc(F)c2F)c(-c2cncnc2)c1Br [III-005] | 90 | 90 | 90 | 100 | 90 |  | 90 |  | 90 |  |  |  |  | 90 |  | 90 | 90 | 90 |  |
| CCOC(=O)CSc1nn(-c2ccccc2OC)c(-c2ccc(F)cc2)c1Br [Example I-023] |  | 90 |  | 100 | 100 | 90 | 100 |  | 100 |  |  | 100 |  | 90 |  |  |  |  |  |
| O=C(O)CSc1nn(-c2ccccc2F)c(-c2cnccn2)c1Br [VI-002] |  | 90 |  | 100 | 90 |  |  | 90 | 90 |  |  |  |  | 90 |  | 90 | 90 | 90 |  |
| O=C(O)CSc1nn(-c2ccccc2F)c(-c2cccnc2)c1Br [II-017] |  | 90 |  | 100 | 90 | 90 | 100 | 90 | 90 | 100 |  |  |  | 90 |  | 90 | 90 | 90 | 90 |
| CCOC(=O)CNC(=O)CSc1nn(-c2ccccc2F)c(-c2ccc(F)c(F)c2)c1Br [VII-003] |  | 90 |  | 100 | 100 |  | 100 | 100 | 100 | 100 | 100 |  | 90 | 100 |  | 90 | 100 |  |  |
| COC(=O)CNC(=O)CSc1nn(-c2ccccc2F)c(-c2ccc(F)c(F)c2)c1[N+](=O)[O-] [VII-004] |  |  |  | 100 |  |  |  |  | 100 |  |  |  |  |  |  |  |  |  |  |
| COC(=O)CCNC(=O)CSc1nn(-c2ccccc2F)c(-c2cccnc2)c1Br [VII-006] |  | 90 | 90 | 100 | 90 | 90 | 90 | 90 | 90 | 100 |  |  |  | 90 |  | 90 | 90 |  | 90 |
| CCOC(=O)CSc1nn(-c2ccccc2F)c(-c2ccc(Cl)nc2)c1Br [II-012] |  | 90 |  | 100 | 100 | 90 | 100 | 90 | 100 | 100 | 100 |  |  | 90 |  | 90 | 90 | 90 | 90 |
| CCOC(=O)CSc1nn(-c2ccccc2F)c(-c2ccc(Br)nc2)c1Br [II-015] | 90 | 90 |  | 90 | 100 |  |  |  | 100 | 90 |  |  |  |  |  | 90 |  |  |  |
| COC(=O)CNC(=O)CSc1nn(-c2ccccc2F)c(-c2ccccc2)c1Br [VII-005] | 100 | 100 | 100 | 100 | 100 | 90 | 100 | 100 | 100 | 100 | 90 |  | 90 | 90 |  | 100 | 90 | 90 | 100 |
| O=C(O)CSc1nn(-c2ccccc2F)c(-c2ccc(Cl)nc2)c1Br [II-016] |  | 100 |  | 100 | 100 | 90 | 90 | 100 | 100 | 100 | 100 | 100 | 100 | 100 | 100 | 100 | 100 | 100 |  |
